In US9107940B2, “Compositions and methods for treating and preventing skeletal muscle deficiencies” (The Regents of the University of Michigan, priority 2007, dated 2015):

Key:
[1] = test system: WT muscles; settings: P188 1 mM or streptomycin 200 μM
Description: LMB muscles from WT mice, termed WT muscles, were divided into two groups. One group was exposed to normal Tyrode solution and the other group to a calcium-free Tyrode solution. […] For all treatments, muscles were allowed to incubate in the chamber for 15 minutes prior to commencement of the contraction protocol. […] For calcium-free experiments, CaCl2 was omitted from the Tyrode solution and MgCl2 was increased to 2.3 mM to maintain the concentration of divalent ions.

[2] = test system: mdx lumbrical (LMB) muscles; experiment: Isometric contraction protocol (20 contractions) inducing force deficit in isolated lumbrical muscles in vitro; design: species or system mouse
Source text: Specific-pathogen-free male mdx mice (C57BL/10ScSn-mdx stock #001801) 2-3 months of age and wild type (WT) C57BL/10 mice 2-5 months of age were obtained from the Jackson Laboratory (Bar Harbor, Me.). Mice were housed in a specific-pathogen-free barrier facility. All experimental procedures were in accordance with the Guide for the Care and Use of Laboratory Animals [DHHS Publication No. 85-23 (NIH), Revised 1985, Office of Science and Health Reports, Bethesda, Md. 20892].
Mice were anesthetized with an intraperitoneal injection of Avertin (tribromoethanol 400 mg/kg). Supplemental doses of Avertin were administered as required to keep the mouse unresponsive to tactile stimuli. The front paws of the mouse were severed and the LMB muscles dissected free from the second digit. The LMB muscles were selected for their extremely small size that ensured all fibres were accessible to externally applied compounds. Based on physical dimensions, LMB muscle mass was estimated to be approximately 0.7 mg. Dissections were performed in a chilled bathing solution, composition in mM: 137 NaCl, 11.9 NaHCO3, 5.0 KCl, 1.8 CaCl2, 0.5 MgCl2, 0.4 NaH2PO4. The isolated LMB muscle was mounted horizontally in a custom-fabricated chamber with the distal tendon attached to a force transducer (Aurora Scientific, Inc., modified Model 400A) and the proximal tendon attached to a servomotor (Aurora Scientific, Inc., Model 318B) by ties composed of 10-0 monofilament nylon suture. Bath temperature was maintained at 25° C. and the chamber was perfused continuously with Tyrode solution (composition in mM: 121 NaCl, 24 NaHCO3, 5.0 KCl, 1.8 CaCl2, 0.5 MgCl2, 0.4 NaH2PO4) maintained at pH 7.3 by bubbling with a 95%/5% O2/CO2 mixture.
Muscles were stimulated electrically by current passed between two platinum electrodes. […] Optimum length (Lo) of the muscle was determined by adjusting its length until maximum twitch force was attained. […]
Data are presented as a mean value±SE. […] When ANOVA was used and significance detected, the Student-Newman-Keuls post hoc comparison was used to assess pairwise differences.

## [H]/N=C(/N)N[C@H]1[C@H](O)[C@@H](O)[C@H](O[C@@H]2O[C@@H](C)[C@](O)(C=O)[C@H]2O[C@@H]2O[C@@H](CO)[C@H](O)[C@@H](O)[C@@H]2NC)[C@@H](N/C(N)=N\[H])[C@@H]1O [streptomycin]
[1]
  toxicity to the muscle: not toxic
[2]; mdx LMB muscles, P188 1 mM, streptomycin 200 μM
  influence on absolute Po: did not influence
[2]; mdx LMB muscles, P188 1 mM, streptomycin 200 μM in Tyrode, 15 min incubation, untreated mdx 69% of Po
  force generated at the end of the contraction protocol (post-protocol normalized Po): 84 % of Po
[2]; whole mdx skeletal muscle
  contraction-induced force deficit (effect in words): equally effective in reducing the contraction-induced force deficit
